Measured values taken from US20100105655A1, “NOVEL COMPOUNDS 515” (ASTRAZENECA AB, priority 2008, published 2010).

Each compound was assayed against T1, IGFR kinase (Homo sapiens, UniProt P08069) (assay: Enzyme assay (c), IGFR kinase, Caliper LabChip). Conditions: 30 nM IGFR kinase, 6 uM ATP, 3 uM peptide mix; read-out: IGFR IC50.
T1 construct: purchased Millipore
Type: biochemical

T1 sequence (P08069 31-1367): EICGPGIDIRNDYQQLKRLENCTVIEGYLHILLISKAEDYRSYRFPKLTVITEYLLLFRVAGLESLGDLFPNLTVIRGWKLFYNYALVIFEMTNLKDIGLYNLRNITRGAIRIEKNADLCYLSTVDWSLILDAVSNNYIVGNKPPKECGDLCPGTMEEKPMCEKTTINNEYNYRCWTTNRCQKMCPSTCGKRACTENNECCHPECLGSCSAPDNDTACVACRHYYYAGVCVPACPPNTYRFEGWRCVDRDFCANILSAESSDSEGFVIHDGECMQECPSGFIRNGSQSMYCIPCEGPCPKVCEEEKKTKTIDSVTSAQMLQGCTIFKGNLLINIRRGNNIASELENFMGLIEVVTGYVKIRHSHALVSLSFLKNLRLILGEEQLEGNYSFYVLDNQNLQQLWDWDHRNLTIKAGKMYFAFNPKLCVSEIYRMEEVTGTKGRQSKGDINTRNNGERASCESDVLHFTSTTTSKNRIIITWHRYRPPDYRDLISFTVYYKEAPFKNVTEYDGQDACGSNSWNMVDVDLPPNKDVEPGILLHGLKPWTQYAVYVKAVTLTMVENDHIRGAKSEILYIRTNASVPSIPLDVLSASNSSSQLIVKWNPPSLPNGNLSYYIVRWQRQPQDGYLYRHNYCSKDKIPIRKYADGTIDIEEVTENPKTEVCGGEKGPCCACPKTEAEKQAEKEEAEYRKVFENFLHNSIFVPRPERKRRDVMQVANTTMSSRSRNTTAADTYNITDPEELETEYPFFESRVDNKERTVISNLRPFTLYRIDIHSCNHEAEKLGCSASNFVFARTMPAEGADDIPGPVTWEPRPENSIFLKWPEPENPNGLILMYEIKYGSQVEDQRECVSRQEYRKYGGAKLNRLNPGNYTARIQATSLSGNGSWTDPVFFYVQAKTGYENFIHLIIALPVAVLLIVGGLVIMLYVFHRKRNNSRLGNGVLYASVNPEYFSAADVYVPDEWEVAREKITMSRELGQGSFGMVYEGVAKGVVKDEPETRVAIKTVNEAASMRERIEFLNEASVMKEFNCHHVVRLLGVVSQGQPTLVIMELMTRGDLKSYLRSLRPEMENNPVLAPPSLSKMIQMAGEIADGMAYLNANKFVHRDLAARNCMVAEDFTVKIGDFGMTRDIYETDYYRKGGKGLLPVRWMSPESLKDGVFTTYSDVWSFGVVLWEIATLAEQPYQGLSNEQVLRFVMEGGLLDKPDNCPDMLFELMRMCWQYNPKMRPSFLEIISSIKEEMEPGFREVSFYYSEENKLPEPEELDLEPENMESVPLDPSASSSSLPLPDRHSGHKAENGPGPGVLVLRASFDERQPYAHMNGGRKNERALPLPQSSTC

| Compound | IC50 [nM] |
| --- | --- |
| COc1cc(N2CC[C@@H](N(C)C)C2)ccc1Nc1ncc(Cl)c(-c2cnc3ccccn23)n1 [Example 3.11, 5-chloro-N-[4-[(3R)-3-dimethylaminopyrrolidin-1-yl]-2-methoxy-phenyl]-4-imidazo[1,2-a]pyridin-3-yl-pyrimidin-2-amine] | 69 |
| CNC(=O)CN1CCN(c2ccc(Nc3ncc(Cl)c(-c4cnc5ccccn45)n3)c(OC)c2)CC1 [Example 66, 2-[4-[4-[(5-chloro-4-imidazo[1,2-a]pyridin-3-yl-pyrimidin-2-yl)amino]-3-methoxy-phenyl]piperazin-1-yl]-N-methyl-acetamide] | 15 |
| CCNCC(=O)N1CCN(c2ccc(Nc3ncc(Cl)c(-c4cnc5ccccn45)n3)c(OC)c2)CC1 [Example 24.11, 1-[4-[4-[(5-chloro-4-imidazo[1,2-a]pyridin-3-yl-pyrimidin-2-yl)amino]-3-methoxy-phenyl]piperazin-1-yl]-2-ethylamino-ethanone] | 15 |
| COc1ccc(OC[C@H]2CCCN2C(C)=O)cc1Nc1ncc(Cl)c(-c2cnc3ccccn23)n1 [Example 17, 1-[(2R)-2-[[3-[(5-chloro-4-imidazo[1,2-a]pyridin-3-yl-pyrimidin-2-yl)amino]-4-methoxy-phenoxy]methyl]pyrrolidin-1-yl]ethanone] | 58 |
| COc1cc(N2CCN(C(=O)CNC(C)=O)CC2)ccc1Nc1ncc(Cl)c(-c2cnc3ccccn23)n1 [Example 25.2, N-[2-[4-[4-[(5-chloro-4-imidazo[1,2-a]pyridin-3-yl-pyrimidin-2-yl)amino]-3-methoxy-phenyl]piperazin-1-yl]-2-oxo-ethyl]acetamide] | 13 |
| COc1cc(N2CCN(C(C)=O)CC2)cc(F)c1Nc1ncc(Cl)c(-c2cnc3ccccn23)n1 [Example 3.26, 1-[4-[4-[(5-chloro-4-imidazo[1,2-a]pyridin-3-yl-pyrimidin-2-yl)amino]-3-fluoro-5-methoxy-phenyl]piperazin-1-yl]ethanone] | 19 |
| COc1cc(N2CCCOCC2)ccc1Nc1ncc(Cl)c(-c2cnc3ccccn23)n1 [Example 3.48, 5-chloro-4-imidazo[1,2-a]pyridin-3-yl-N-[2-methoxy-4-(1,4-oxazepan-4-yl)phenyl]pyrimidin-2-amine] | 25 |
| CNC(=O)C1CC(c2ccc(Nc3ncc(Cl)c(-c4cnc5ccccn45)n3)c(OC)c2)CN1 (centres unmarked) [Example 3.27, 4-[4-[(5-chloro-4-imidazo[1,2-a]pyridin-3-yl-pyrimidin-2-yl)amino]-3-methoxy-phenyl]-N-methyl-pyrrolidine-2-carboxamide] | 6 |
| COc1cc(C(C)C(=O)N2CCOCC2)ccc1Nc1ncc(Cl)c(-c2cnc3ccccn23)n1 (centres unmarked) [Example 3.39, 2-[4-[(5-chloro-4-imidazo[1,2-a]pyridin-3-yl-pyrimidin-2-yl)amino]-3-methoxy-phenyl]-1-morpholino-propan-1-one] | 31 |
| CC(=O)N1CCN(c2ccc(Nc3ncc(Cl)c(-c4cnc5ccccn45)n3)c(C)c2)CC1 [Example 3.30, 1-[4-[4-[(5-chloro-4-imidazo[1,2-a]pyridin-3-yl-pyrimidin-2-yl)amino]-3-methyl-phenyl]piperazin-1-yl]ethanone] | 12 |
| COc1cc(CN2CCN(C)CC2)ccc1Nc1ncc(Cl)c(-c2cnc3ccccn23)n1 [Example 21.4, 5-chloro-4-imidazo[1,2-a]pyridin-3-yl-N-[2-methoxy-4-[(4-methylpiperazin-1-yl)methyl]phenyl]pyrimidin-2-amine] | 30 |
| COc1cc(N2CC[C@@H](O)C2)ccc1Nc1ncc(F)c(-c2cnc3ccccn23)n1 [Example 85, (3R)-1-[4-[(5-fluoro-4-imidazo[1,2-a]pyridin-3-yl-pyrimidin-2-yl)amino]-3-methoxy-phenyl]pyrrolidin-3-ol] | 34 |
| COc1cc(OC2CN(C(=O)N(C)C)C2)ccc1Nc1ncc(Cl)c(-c2cnc3ccccn23)n1 [Example 69, 3-[4-[(5-chloro-4-imidazo[1,2-a]pyridin-3-yl-pyrimidin-2-yl)amino]-3-methoxy-phenoxy]-N,N-dimethyl-azetidine-1-carboxamide] | 32 |
| COc1cc(N2CCN(C(=O)[C@@H]3CCCCN3)CC2)ccc1Nc1ncc(Cl)c(-c2cnc3ccccn23)n1 [Example 24.2, [4-[4-[(5-chloro-4-imidazo[1,2-a]pyridin-3-yl-pyrimidin-2-yl)amino]-3-methoxy-phenyl]piperazin-1-yl]-[(2S)-2-piperidyl]methanone] | 6 |
| CC(=O)N1CCN(c2cc(C)c(Nc3ncc(Cl)c(-c4cnc5ccccn45)n3)cc2F)CC1 [Example 3.33, 1-[4-[4-[(5-chloro-4-imidazo[1,2-a]pyridin-3-yl-pyrimidin-2-yl)amino]-2-fluoro-5-methyl-phenyl]piperazin-1-yl]ethanone] | 16 |
| COc1cc(N2CCCC2C(=O)N2CCOCC2)ccc1Nc1ncc(Cl)c(-c2cnc3ccccn23)n1 (centres unmarked) [Example 3.2, [1-[4-[(5-chloro-4-imidazo[1,2-a]pyridin-3-yl-pyrimidin-2-yl)amino]-3-methoxy-phenyl]pyrrolidin-2-yl]-morpholino-methanone] | 54 |
| COc1cc(OC[C@@H]2CCCN2C(C)=O)ccc1Nc1ncc(Cl)c(-c2cnc3ccccn23)n1 [Example 16, 1-[(2S)-2-[[4-[(5-chloro-4-imidazo[1,2-a]pyridin-3-yl-pyrimidin-2-yl)amino]-3-methoxy-phenoxy]methyl]pyrrolidin-1-yl]ethanone] | 32 |

Results, then the compound that gave them:

| IC50 [nM] | Compound |
| --- | --- |
| 9 | COc1cc(N2CCN(C(=O)CO)CC2)ccc1Nc1ncc(Cl)c(-c2cnc3cc(C)ccn23)n1 [Example 251, 1-[4-[4-[[5-chloro-4-(7-methylimidazo[1,2-a]pyridin-3-yl)pyrimidin-2-yl]amino]-3-methoxy-phenyl]piperazin-1-yl]-2-hydroxy-ethanone] |
| 17 | COc1cc(N2CC3CN(CCO)CC(C2)O3)ccc1Nc1ncc(C)c(-c2cnn3ccccc23)n1 [Example 166, 2-[7-[3-methoxy-4-[(5-methyl-4-pyrazolo[1,5-a]pyridin-3-yl-pyrimidin-2-yl)amino]phenyl]-9-oxa-3,7-diazabicyclo[3.3.1]nonan-3-yl]ethanol] |
| 16 | COc1cc(C2CN(C(C)=O)C2)ccc1Nc1ncc(Cl)c(-c2cnc3ccccn23)n1 [Example 277, 1-[3-[4-[(5-chloro-4-imidazo[1,2-a]pyridin-3-yl-pyrimidin-2-yl)amino]-3-methoxy-phenyl]azetidin-1-yl]ethanone] |
| 3 | CNC(=O)C1CCN(c2ccc(Nc3ncc(Cl)c(-c4cnc5c(F)cccn45)n3)c(OC)c2)CC1 [Example 222, 1-[4-[[5-chloro-4-(8-fluoroimidazo[1,2-a]pyridin-3-yl)pyrimidin-2-yl]amino]-3-methoxy-phenyl]-N-methyl-piperidine-4-carboxamide] |
| 16 | COc1cc(C2CCN(C(=O)CO)CC2)ccc1Nc1ncc(C)c(-c2cnn3ccccc23)n1 [Example 163, 2-hydroxy-1-[4-[3-methoxy-4-[(5-methyl-4-pyrazolo[1,5-a]pyridin-3-yl-pyrimidin-2-yl)amino]phenyl]-1-piperidyl]ethanone] |
| 6 | COc1cc(N(CCO)CCO)ccc1Nc1ncc(Cl)c(-c2cnc3c(F)cccn23)n1 [Example 223, 2-[4-[[5-chloro-4-(8-fluoroimidazo[1,2-a]pyridin-3-yl)pyrimidin-2-yl]amino]-N-(2-hydroxyethyl)-3-methoxy-anilino]ethanol] |
| 7 | COc1cc(N2CC3CN(CCO)CC(C2)O3)ccc1Nc1ncc(Cl)c(-c2cnc3c(F)cccn23)n1 [Example 184, 2-[7-[4-[[5-chloro-4-(8-fluoroimidazo[1,2-a]pyridin-3-yl)pyrimidin-2-yl]amino]-3-methoxy-phenyl]-9-oxa-3,7-diazabicyclo[3.3.1]nonan-3-yl]ethanol] |
| 36 | COc1cc(OC2CCN(C(C)=O)CC2)ccc1Nc1ncc(C(F)(F)F)c(-c2cnc3ccccn23)n1 [Example 110, 1-[4-[4-[[4-imidazo[1,2-a]pyridin-3-yl-5-(trifluoromethyl)pyrimidin-2-yl]amino]-3-methoxy-phenoxy]-1-piperidyl]ethanone] |
| 3 | CNCC(=O)N1CCN(c2ccc(Nc3ncc(Cl)c(-c4cnn5ccccc45)n3)c(OC)c2)CC1 [Example 133, 1-[4-[4-[(5-chloro-4-pyrazolo[1,5-a]pyridin-3-yl-pyrimidin-2-yl)amino]-3-methoxy-phenyl]piperazin-1-yl]-2-methylamino-ethanone] |
| 16 | COc1cc(N2CCN(C(CO)CO)CC2)ccc1Nc1ncc(C)c(-c2cnc3ccccn23)n1 [Example 269, 2-[4-[4-[(4-imidazo[1,2-a]pyridin-3-yl-5-methyl-pyrimidin-2-yl)amino]-3-methoxy-phenyl]piperazin-1-yl]propane-1,3-diol] |
| 11 | COc1cc(C2CN(C(=O)[C@H](C)O)C2)ccc1Nc1ncc(Cl)c(-c2cnn3ccccc23)n1 [Example 135A] |
| 37 | COc1cc(N2CCN(C[C@@H](C)O)CC2)ccc1Nc1ncc(F)c(-c2cnc3ccccn23)n1 [Example 90, (2R)-1-[4-[4-[(5-fluoro-4-imidazo[1,2-a]pyridin-3-yl-pyrimidin-2-yl)amino]-3-methoxy-phenyl]piperazin-1-yl]propan-2-ol] |
| 35 | COc1cc(N2CCN(CC(C)(C)O)CC2)ccc1Nc1ncc(F)c(-c2cnc3ccccn23)n1 [Example 91, 1-[4-[4-[(5-fluoro-4-imidazo[1,2-a]pyridin-3-yl-pyrimidin-2-yl)amino]-3-methoxy-phenyl]piperazin-1-yl]-2-methyl-propan-2-ol] |
| 3 | COc1cc(N2CCN(C(=O)[C@H](C)N)CC2)ccc1Nc1ncc(Cl)c(-c2cnn3ccccc23)n1 [Example 132, (2S)-2-amino-1-[4-[4-[(5-chloro-4-pyrazolo[1,5-a]pyridin-3-yl-pyrimidin-2-yl)amino]-3-methoxy-phenyl]piperazin-1-yl]propan-1-one] |
| 13 | COc1cc(OC[C@H]2CCCN2C(C)=O)ccc1Nc1ncc(OC)c(-c2cnc3ccccn23)n1 [Example 114, 1-[(2R)-2-[[4-[(4-imidazo[1,2-a]pyridin-3-yl-5-methoxy-pyrimidin-2-yl)amino]-3-methoxy-phenoxy]methyl]pyrrolidin-1-yl]ethanone] |
